Test system: Soybean Cyst Nematode (Heterodera Glycines)
Assay: Soybean cyst nematode reproduction on seed-treated soybean plants in cone-tainers, eggs counted 30 days after inoculation
Assay type: in vivo
Conditions: soybean seed treatment
From the text: The expected percentage of disease control to be expected, E, for a given combination of two active ingredients can be calculated as follows (see COLBY, S. R. “Calculating synergistic and antagonistic response of herbicide combinations”. Weeds 15, pages 20-22; 1967):
wherein: X=% disease control in the case of treatment with active ingredient (A) at a defined application rate, in comparison with untreated control (=0%). Y=% disease control in the case of treatment with active ingredient (B) at a defined application rate, in comparison with untreated control. E=expected percentage of disease control (% disease control in comparison with untreated control) after treatment with active ingredient (A) and active ingredient (B) at a defined application rate. If the observed percentage of disease control O is greater than the expected value E, there is a synergistic effect.
Soybeans were planted into “cone-tainers” (3.8 cm cell diameter; 14 cm cell depth; the Ray Leach “Cone-tainer” Single Cell System consists of individual cells that can be arranged within a tray and is available from Stuewe and Sons Incorporated) in 70% sand 30% clay loam soil mix (one soybean seed per cone-tainer). The cone-tainers contained a 10 cm by 10 cm piece of cheesecloth at the bottom to prevent the soil coming out of the bottom. The soil mix was autoclaved for 60 minutes prior to use. Extra cone-tainers were planted which allowed similar size soybean plants to be selected and placed into a randomized complete block design with 3 replications of each treatment. The cone-tainers were placed into a growth chamber set at 27° C. and 14 hour day light periods. The air temperature in the growth chamber was monitored in 15 minutes intervals using a watchdog data collector. […] The water source was supplemented with fertilizer to promote plant growth.
Soil was collected from a field with “HG type” 2.5.7 (The “HG type” test is a greenhouse test that provides information on how well a soybean cyst nematode “Heterodera glycines, HG” population can reproduce in a particular soil). The soil was added to water and poured over a 25 mesh sieve over a 60 mesh sieve to collect the cysts. The soil solution collected on the 60 mesh sieve was then placed onto a 120 mesh sieve over 500 mesh sieve. […]
The soybean plants were inoculated with 6,000 soybean cyst nematode eggs 7 days after the planting of the soybeans into the cone-tainers. […] The air temperature in the growth chamber was monitored in 15 minutes intervals using a watchdog data collector. […]
The plants were removed from the growth chamber 30 days after inoculation to assess the nematode reproduction factor. […] The total number of soybean cyst nematode eggs present in each sample was determined. […]

Row | Compound | Observed Rf (nematode reproduction factor) (2.5 g acibenzolar-S-methyl/100 kg seed, 30 days after inoculation) | Observed Rf (nematode reproduction factor) (5.0 g acibenzolar-S-methyl/100 kg seed, 30 days after inoculation) | Observed Rf (nematode reproduction factor) (10.0 g acibenzolar-S-methyl/100 kg seed, 30 days after inoculation) | Observed Rf (nematode reproduction factor) (0.15 mg abamectin/seed, 30 days after inoculation with 6,000 eggs)
1 | CSC(=O)c1cccc2nnsc12 [(B-1), acibenzolar-S-methyl] | 4.1 | 2.7 | 3.9 | 
2 | abamectin [(A-a)] |  |  |  | 2.5
